“And” between values parts separate entries of the source, which are not always exact repeats. Equal entries are not always repeated. Where two headings read alike, the source gives them in different places.
Key:
B16F1 [1] = assay: MTS assay, B16F1 melanoma cells; type: cell-based; conditions: for IC50: MTS, 24 h treatment
Protocol: (§1) Hepatocellular carcinoma (Hep3B and HepG2), cervical adenocarcinoma (HeLa), breast carcinoma (MCF-7), melanoma (B16F1), colorectal adenocarcinoma (Caco-2), and colon adenocarcinoma (Colo205), as well as human hepatic stellate (LX-2) in addition to the normal cell line (Hek293T), were used as cancer and normal cell lines and were cultured in RPMI-1640 media and supplemented with 10.0% fetal bovine serum, 1.0% l-glutamine and 1.0% Penicillin/Streptomycin antibiotics. After that, the cells matured in a moist atmosphere with 5.0% CO2 at 37 °C. In a 96-well plate, the cells were seeded at 2.5 × 10^4 cells/well. After 72 h, the cells were confluent, the media was changed, and then the cells were incubated with various concentrations (300, 100, 50, 10, and 1 µM), as well as lower concentrations (500, 100, and 50 nM) were used, especially for compound 2e against the B16-F1 cancer cell line to calculate accurate IC50 values for the evaluated compounds (2a–2f) for 24 h. The viability of cells was assessed by the Cell Tilter 96® Aqueous One Solution Cell Proliferation (MTS) Assay according to the manufacturer’s procedures (Promega Corporation, Madison, WI). However, at the end of the treatment, about 20 μl/100 μl of MTS solution/media was added to each well and for 2 h, they were incubated at 37 °C. Finally, the absorbance was measured at 490 nm.

Hek293t = assay: MTS assay, normal cell line Hek293t; type: cell-based; conditions: 24 h treatment
Protocol: as §1

HeLa = assay: MTS assay, HeLa cervical adenocarcinoma cells; type: cell-based, Human; conditions: 24 h treatment
Protocol: as §1

MCF-7 = assay: MTS assay, MCF-7 breast carcinoma cells; type: cell-based, Human
Protocol: as §1

HepG2 = assay: MTS assay, HepG2 hepatocellular carcinoma cells; type: cell-based; conditions: for viability at 50 µM: read-out: Cell viability percentage, HepG2; for IC50: MTS, 24 h treatment
Protocol: as §1

[2] = system: B16F1, Colo205, HepG2, and HeLa cancer cell lines; assay: MTS assay, IC50 range over a panel of cancer cell lines; type: cell-based
Protocol: as §1

Hep3B = assay: MTS assay, Hep3B hepatocellular carcinoma cells; type: cell-based; conditions: 24 h treatment
Protocol: as §1

Colo205 = assay: MTS assay, Colo205 colon adenocarcinoma cells; type: cell-based; conditions: for IC50: MTS, 24 h treatment; for viability at 50 µM: COLO 205, read-out: Cell viability percentage, Colo205
Protocol: as §1

CaCo-2 = assay: MTS assay, CaCo-2 colorectal adenocarcinoma cells; type: cell-based
Protocol: as §1

B16F1 [3] = assay: MTS assay, B16F1 melanoma cells; type: cell-based; conditions: compound versus its nano-emulgel at 1, 0.5, 0.1, 0.05, and 0.01 µM
[4] = system: human hepatic stellate cell (HSC) line LX-2; assay: Anti-fibrotic activity, MTS viability of LX-2 cells; type: cell-based; conditions: 1 µM
Protocol: Hepatocellular carcinoma (Hep3B and HepG2), cervical adenocarcinoma (HeLa), breast carcinoma (MCF-7), melanoma (B16F1), colorectal adenocarcinoma (Caco-2), and colon adenocarcinoma (Colo205), as well as human hepatic stellate (LX-2) in addition to the normal cell line (Hek293T), were used as cancer and normal cell lines and were cultured in RPMI-1640 media and supplemented with 10.0% fetal bovine serum, 1.0% l-glutamine and 1.0% Penicillin/Streptomycin antibiotics. After that, the cells matured in a moist atmosphere with 5.0% CO2 at 37 °C. In a 96-well plate, the cells were seeded at 2.5 × 10^4 cells/well. […] The viability of cells was assessed by the Cell Tilter 96® Aqueous One Solution Cell Proliferation (MTS) Assay according to the manufacturer’s procedures (Promega Corporation, Madison, WI). […] Finally, the absorbance was measured at 490 nm.
To explore the anti-fibrotic effects of these compounds on human hepatic stellate cell (HSC) line LX-2, the viability of LX-2 cells following various compounds' treatment was determined by the MTS assay.

[5] = Homo sapiens, MCF7, 24 h treatment
[6] = Homo sapiens, Caco-2, 24 h treatment

| Structure (SMILES) | IC50 (B16F1 [1]; Mus musculus, B16-F1) [µM] | IC50 (HeLa; Homo sapiens, HeLa) [µM] | IC50 (MCF-7; [5]) [µM] | IC50 (HepG2; Homo sapiens, HepG2) [µM] | IC50 (Hep3B; Homo sapiens, Hep3B) [µM] | IC50 (Colo205; Homo sapiens, COLO 205, 24 h) [µM] | IC50 (Colo205) [µM] | IC50 (CaCo-2; [6]) [µM] | IC50 (B16F1 [1]) [µM] | IC50 (HeLa) [µM] | IC50 (MCF-7; 24 h treatment) [µM] | IC50 (HepG2) [µM] | IC50 (Hep3B) [µM] | IC50 (CaCo-2; 24 h treatment) [µM] | IC50 (Hek293t; Homo sapiens, HEK-293T) [µM] | IC50 (Hek293t) [µM] | also measured |
| --- | --- | --- | --- | --- | --- | --- | --- | --- | --- | --- | --- | --- | --- | --- | --- | --- | --- |
| COc1cc(NC(=O)c2c(-c3ccccc3)noc2C)c(OC)cc1Cl [2a, N-(4–Chloro-2,5-dimethoxyphenyl)-5-methyl-3-phenylisoxazole-4–Carboxamide] | 29.7 ± 2.12 | 40.8 ± 1.25 | > 200 | 7.55 ± 0.79 | > 200 | 9.18 | 9.18 ± 0.88 | 129 ± 2.47 | – | – | – | – | – | – | 2.54 ± 1.4 | – | viability at 50 µM (HepG2; Homo sapiens, HepG2): 29.2%; IC50 ([2]; range over five cancer cell lines, read-out: IC50 range on five cancer cell lines): 7.54 to 129 µM; IC50 ([2]; range over four cancer cell lines, read-out: IC50 range against B16F1, Colo205, HepG2, and HeLa): 7.55 to 40.9 µM; viability at 50 µM (Colo205; Homo sapiens): 39.4% |
| Cc1onc(-c2ccccc2)c1C(=O)Nc1cccc(C(F)(F)F)c1 [2b, 5-Methyl-3-phenyl-N-(3-(trifluoromethyl)phenyl) isoxazole-4–Carboxamide] | – | – | – | – | – | – | > 200 | – | 42.9 ± 1.55 | > 200 | > 200 | 53.6 ± 2.04 | > 200 | > 200 | – | 148 ± 2.74 | – |
| COc1ccccc1Oc1ccc(NC(=O)c2c(-c3ccccc3)noc2C)cc1 [2c, N-(4-(2-Methoxyphenoxy)phenyl)-5-methyl-3-phenylisoxazole-4–Carboxamide] | 21.1 ± 0.78 | > 200 | > 200 | 120 ± 2.19 | > 200 | 183 ± 2.05 | – | > 200 | – | – | – | – | – | – | 20.2 ± 1.32 | – | melting point: 179 to 180 °C |
| O=c1[nH]cc(F)c(=O)[nH]1 [5-FU] | – | – | – | – | – | – | – | – | – | – | – | – | – | – | – | – | Cellular viability of LX-2 [4]: 95% and 94.64% |

The next lines start with results.

| IC50 (B16F1 [1]; Mus musculus, B16-F1) [µM] | IC50 (HeLa; Homo sapiens, HeLa) [µM] | IC50 (MCF-7; [5]) [µM] | IC50 (HepG2; Homo sapiens, HepG2) [µM] | IC50 (Hep3B; Homo sapiens, Hep3B) [µM] | IC50 (Colo205; Homo sapiens, COLO 205, 24 h) [µM] | IC50 (Colo205) [µM] | IC50 (CaCo-2; [6]) [µM] | IC50 (B16F1 [1]) [µM] | IC50 (HeLa) [µM] | IC50 (MCF-7; 24 h treatment) [µM] | IC50 (HepG2) [µM] | IC50 (Hep3B) [µM] | IC50 (CaCo-2; 24 h treatment) [µM] | Structure (SMILES) | IC50 (Hek293t; Homo sapiens, HEK-293T) [µM] | IC50 (Hek293t) [µM] | also measured |
| --- | --- | --- | --- | --- | --- | --- | --- | --- | --- | --- | --- | --- | --- | --- | --- | --- | --- |
| 39.8 ± 1.45 | > 200 | > 200 | 37.9 ± 2.07 | > 200 | 216.4 ± 1.58 | – | > 200 | – | – | – | – | – | – | CSc1ccc(NC(=O)c2c(-c3ccccc3)noc2C)cc1 [2d, 5-Methyl-N-(4-(methylthio)phenyl)-3-phenylisoxazole-4–Carboxamide] | > 200 | – | melting point: 144 to 146 °C |
| – | – | – | – | – | – | > 200 | – | 0.079 | > 200 | > 200 | > 200 | > 200 | > 200 | Cc1onc(-c2ccccc2)c1C(=O)Nc1ccc(OC(F)(F)F)cc1 [2e, 5-Methyl-3-phenyl-N-(4-(trifluoromethoxy)phenyl) isoxazole-4–Carboxamide] | – | 190 ± 2.67 | Cell viability percentage, B16F1 (B16F1 [1]; 50 µM): 18.42%; IC50 (B16F1 [3]): 0.079 µM |
| – | – | – | – | – | – | 75.4 ± 2.41 | – | 12.7 ± 1.01 | > 200 | > 200 | 38.4 ± 1.07 | 54.6 ± 2.11 | > 200 | Cc1onc(-c2ccccc2)c1C(=O)Nc1ccc(-c2cccs2)cc1 [2f, 5-Methyl-3-phenyl-N-(4-(thiophen-2-yl)phenyl) isoxazole-4–Carboxamide] | – | 7.91 ± 0.61 | Cell viability percentage, B16F1 (B16F1 [1]; 50 µM): 34.03%; Cellular viability of LX-2 [4]: 66.55% |
| 0.056 | – | – | – | – | – | – | – | – | – | – | – | – | – | COc1cccc2c1C(=O)c1c(O)c3c(c(O)c1C2=O)C[C@@](O)(C(=O)CO)C[C@@H]3O[C@H]1C[C@H](N)[C@H](O)[C@H](C)O1 [Dox, Doxorubicin, reference compound] | – | – | viability at 50 µM (B16F1 [1]; Mus musculus, B16-F1, 50 µM, read-out: Cell viability percentage, B16F1): 21.8%; viability at 50 µM (HepG2; Homo sapiens, HepG2): 9.46%; viability at 50 µM (Colo205; Homo sapiens): 9.89% |
